18 molecules from patent US9951063B2, “8-(piperazin-1-yl)-1,2,3,4-tetrahydro-isoquinoline derivatives” (IDORSIA PHARMACEUTICALS LTD, priority 2014, dated 2018) can be followed below.

A word on the IC50: it is the point on the concentration scale where inhibition reaches its midpoint.

Sequence of human CXCR3A (P49682 whole entry): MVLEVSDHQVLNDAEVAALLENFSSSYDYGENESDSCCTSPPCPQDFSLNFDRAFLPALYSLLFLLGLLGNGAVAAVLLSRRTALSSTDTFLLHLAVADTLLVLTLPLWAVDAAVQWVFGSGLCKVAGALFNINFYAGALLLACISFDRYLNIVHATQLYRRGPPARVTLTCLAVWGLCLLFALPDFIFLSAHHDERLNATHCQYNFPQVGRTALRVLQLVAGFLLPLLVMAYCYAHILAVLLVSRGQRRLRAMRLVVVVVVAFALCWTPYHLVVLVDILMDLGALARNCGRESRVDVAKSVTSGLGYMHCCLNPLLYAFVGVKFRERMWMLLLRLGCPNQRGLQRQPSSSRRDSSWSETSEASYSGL

The target of this test is human CXCR3A (Homo sapiens (Human), UniProt P49682). Put plainly: FLIPR assay (inhibition of CXCL10-induced calcium signal). The format is cell-based. The conditions noted are these: engineered CHO-K1 cells expressing human CXCR3A coupled to Galpha(16); Fluo-4-AM; CXCL10 agonist 20 nM; mean values where determined several times. As for the experimental part:
The bioactivity of compounds is tested in a fluorometric imaging plate reader (FLIPR: Molecular Devices) using engineered CHO-K1 cells expressing the human CXCR3A (GenBank: AY242128) coupled to a G protein (Galpha(16)). Cells are plated the day prior to bioassay in F12 medium supplemented with 10% FBS and G418 and hygromycin antibiotics to maintain recombinant selection. At the day of bioassay, cells are washed and dye loaded for one hour with Fluo-4-AM (Invitrogen) in Hanks Balanced Salt Solution (Invitrogen), buffered with 20 mM Hepes at pH 7.4 and sodium bicarbonate (0.038%), containing 5 mM probenecid. This buffer, but lacking the dye and containing probenecid at a concentration of 2.5 mM, is also used for washing steps (wash buffer); or lacking both dye and probenecid but supplemented with 0.1% BSA for compound dilution steps (dilution buffer). Cells are washed free of excess dye and 60 microliter of wash buffer is added. Stock solutions of test compounds are made up at a concentration of 10 mM in DMSO, and serially diluted in dilution buffer to concentrations required for inhibition dose response curves. After a 10 minute incubation period at 37° C., 10 microliters of each compound dilution are transferred from a compound plate to the plate containing the recombinant cells in the FLIPR instrument according to the manufacturer's instructions. Following basal readings, 10 microliter CXCL10 agonist at a concentration of 20 nM (from Peprotech) is added, again using the FLIPR instrument. Changes in fluorescence are monitored before and after addition of the test compounds. Emission peak values above base level after CXCL10 addition are exported after base line subtraction.
The calculated IC50 values may fluctuate depending on the daily assay performance. Fluctuations of this kind are known to those skilled in the art. In the case where IC50 values have been determined several times for the same compound, mean values are given.
Regarding `Cc1cc(C)n(CC(=O)N2CCN(c3ccc(C(F)(F)F)c4c3CN(c3nc5ccc(C#N)cc5s3)CC4)C[C@H]2C)n1` [Example 11, 2-(8-{(R)-4-[2-(3,5-Dimethyl-pyrazol-1-yl)-acetyl]-3-methyl-piperazin-1-yl}-5-trifluoromethyl-3,4-dihydro-1H-isoquinolin-2-yl)-benzothiazole-6-carbonitrile], the IC50 was determined as 6.58 nM.
As for `Cc1cc(C)n(CC(=O)N2CCN(c3ccc(C(F)(F)F)c4c3CN(c3nc5ccccc5o3)CC4)C[C@H]2C)n1` [Example 12, 1-[(R)-4-(2-Benzooxazol-2-yl-5-trifluoromethyl-1,2,3,4-tetrahydro-isoquinolin-8-yl)-2-methyl-piperazin-1-yl]-2-(3,5-dimethyl-pyrazol-1-yl)-ethanone], the figure is 9.39 nM; as for `Cc1cc(C)n(CC(=O)N2CCN(c3ccc(C(F)(F)F)c4c3CN(c3cnc(N(C)C)nc3)CC4)C[C@H]2C)n1` [Example 13, 1-{(R)-4-[2-(2-Dimethylamino-pyrimidin-5-yl)-5-trifluoromethyl-1,2,3,4-tetrahydro-isoquinolin-8-yl]-2-methyl-piperazin-1-yl}-2-(3,5-dimethyl-pyrazol-1-yl)-ethanone], 8.48 nM.
As to `Cc1cc(C)n(CC(=O)N2CCN(c3ccc(C(F)(F)F)c4c3CN(c3ncc(Br)cn3)CC4)C[C@H]2C)n1` [Example 14, 1-{(R)-4-[2-(5-Bromo-pyrimidin-2-yl)-5-trifluoromethyl-1,2,3,4-tetrahydro-isoquinolin-8-yl]-2-methyl-piperazin-1-yl}-2-(3,5-dimethyl-pyrazol-1-yl)-ethanone], the IC50 was found to be 27.7 nM.
In the case of `Cc1cc(C)n(CC(=O)N2CCN(c3ccc(C(F)(F)F)c4c3CN(c3cnc(C5CC5)nc3)CC4)C[C@H]2C)n1` [Example 15, 1-{(R)-4-[2-(2-Cyclopropyl-pyrimidin-5-yl)-5-trifluoromethyl-1,2,3,4-tetrahydro-isoquinolin-8-yl]-2-methyl-piperazin-1-yl}-2-(3,5-dimethyl-pyrazol-1-yl)-ethanone] it was 3.58 nM; in that of `C[C@@H]1CN(c2ccc(C(F)(F)F)c3c2CN(c2ccccc2)CC3)CCN1C(=O)Cn1cnc2cccnc21` [Example 16, 2-Imidazo[4,5-b]pyridin-3-yl-1-[(R)-2-methyl-4-(2-phenyl-5-trifluoromethyl-1,2,3,4-tetrahydro-isoquinolin-8-yl)-piperazin-1-yl]-ethanone], 6.19 nM.
In the case of `COc1ncc(N2CCc3c(C(F)(F)F)ccc(N4CCN(C(=O)Cn5cnc6cccnc65)[C@H](C)C4)c3C2)cn1` [Example 17, 2-Imidazo[4,5-b]pyridin-3-yl-1-{(R)-4-[2-(2-methoxy-pyrimidin-5-yl)-5-trifluoromethyl-1,2,3,4-tetrahydro-isoquinolin-8-yl]-2-methyl-piperazin-1-yl}-ethanone], the IC50 stood at 9.2 nM.
For `COc1cccc(N2CCc3c(C(F)(F)F)ccc(N4CCN(C(=O)Cn5cnc6cccnc65)[C@H](C)C4)c3C2)c1` [Example 18, 2-Imidazo[4,5-b]pyridin-3-yl-1-{(R)-4-[2-(3-methoxy-phenyl)-5-trifluoromethyl-1,2,3,4-tetrahydro-isoquinolin-8-yl]-2-methyl-piperazin-1-yl}-ethanone], the IC50 was determined as 13 nM.
As for `COc1nc(OC)nc(N2CCc3c(C(F)(F)F)ccc(N4CCN(C(=O)Cn5cnc6cccnc65)[C@H](C)C4)c3C2)n1` [Example 19, 1-{(R)-4-[2-(4,6-Dimethoxy-[1,3,5]triazin-2-yl)-5-trifluoromethyl-1,2,3,4-tetrahydro-isoquinolin-8-yl]-2-methyl-piperazin-1-yl}-2-imidazo[4,5-b]pyridin-3-yl-ethanone], the figure is 11.7 nM; as for `CCOc1ncc(N2CCc3c(C(F)(F)F)ccc(N4CCN(C(=O)Cn5cnc6cccnc65)[C@H](C)C4)c3C2)cn1` [Example 20, 1-{(R)-4-[2-(2-Ethoxy-pyrimidin-5-yl)-5-trifluoromethyl-1,2,3,4-tetrahydro-isoquinolin-8-yl]-2-methyl-piperazin-1-yl}-2-imidazo[4,5-b]pyridin-3-yl-ethanone], 7.77 nM; as for `C[C@@H]1CN(c2ccc(C(F)(F)F)c3c2CN(c2ccc(Cl)cc2)CC3)CCN1C(=O)Cn1cnc2cccnc21` [Example 21, 1-{(R)-4-[2-(4-Chloro-phenyl)-5-trifluoromethyl-1,2,3,4-tetrahydro-isoquinolin-8-yl]-2-methyl-piperazin-1-yl}-2-imidazo[4,5-b]pyridin-3-yl-ethanone], 29.9 nM.
As for `CCCc1ncc(N2CCc3c(C(F)(F)F)ccc(N4CCN(C(=O)Cn5cnc6cccnc65)[C@H](C)C4)c3C2)cn1` [Example 22, 2-Imidazo[4,5-b]pyridin-3-yl-1-{(R)-2-methyl-4-[2-(2-propyl-pyrimidin-5-yl)-5-trifluoromethyl-1,2,3,4-tetrahydro-isoquinolin-8-yl]-piperazin-1-yl}-ethanone], the figure is 10.7 nM; as for `COc1ncc(N2CCc3c(C(F)(F)F)ccc(N4CCN(C(=O)Cn5nc(C)nc5C)[C@H](C)C4)c3C2)cn1` [Example 23, 2-(3,5-Dimethyl-[1,2,4]triazol-1-yl)-1-{(R)-4-[2-(2-methoxy-pyrimidin-5-yl)-5-trifluoromethyl-1,2,3,4-tetrahydro-isoquinolin-8-yl]-2-methyl-piperazin-1-yl}-ethanone], 17.1 nM; as for `COc1ncc(N2CCc3c(C(F)(F)F)ccc(N4CCN(C(=O)Cn5nc(C)cc5C)[C@H](C)C4)c3C2)cn1` [Example 24, 2-(3,5-Dimethyl-pyrazol-1-yl)-1-{(R)-4-[2-(2-methoxy-pyrimidin-5-yl)-5-trifluoromethyl-1,2,3,4-tetrahydro-isoquinolin-8-yl]-2-methyl-piperazin-1-yl}-ethanone], 3.7 nM.
As for `COc1ncc(N2CCc3c(C(F)(F)F)ccc(N4CCN(C(=O)Cn5cccn5)[C@H](C)C4)c3C2)cn1` [Example 25, 1-{(R)-4-[2-(2-Methoxy-pyrimidin-5-yl)-5-trifluoromethyl-1,2,3,4-tetrahydro-isoquinolin-8-yl]-2-methyl-piperazin-1-yl}-2-pyrazol-1-yl-ethanone], the figure is 24 nM.
Turning to `COc1ncc(N2CCc3c(C(F)(F)F)ccc(N4CCN(C(=O)Cn5nccn5)[C@H](C)C4)c3C2)cn1` [Example 26, 1-{(R)-4-[2-(2-Methoxy-pyrimidin-5-yl)-5-trifluoromethyl-1,2,3,4-tetrahydro-isoquinolin-8-yl]-2-methyl-piperazin-1-yl}-2-[1,2,3]triazol-2-yl-ethanone], the IC50 came to 98.5 nM.
`COc1ncc(N2CCc3c(C(F)(F)F)ccc(N4CCN(C(=O)CCn5cccn5)[C@H](C)C4)c3C2)cn1` [Example 27, 1-{(R)-4-[2-(2-Methoxy-pyrimidin-5-yl)-5-trifluoromethyl-1,2,3,4-tetrahydro-isoquinolin-8-yl]-2-methyl-piperazin-1-yl}-3-pyrazol-1-yl-propan-1-one]: the IC50 was found to be 908 nM.
In the case of `CCOc1ncc(N2CCc3c(C(F)(F)F)ccc(N4CCN(C(=O)Cn5cnc6cccnc65)CC4)c3C2)cn1` [Example 28, 1-{4-[2-(2-Ethoxy-pyrimidin-5-yl)-5-trifluoromethyl-1,2,3,4-tetrahydro-isoquinolin-8-yl]-piperazin-1-yl}-2-imidazo[4,5-b]pyridin-3-yl-ethanone] it was 2.4 nM.
